Test results taken from patent US20230017045A1, “PYRIDINE AND PYRIMIDINE CARBOXYLATE HERBICIDES AND METHODS OF USE THEREOF” (Dow AgroSciences LLC, priority 2017, published 2023).
Read-outs that look alike come from different tables or passages of the source.

Test system: test plant species
Assay: Post-emergent herbicidal activity test (greenhouse, foliar spray, visual growth reduction)
Type: in vivo
Details: post-emergence, 336 h, 140 g ai/ha, 14 days after application
In short: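 Scoring used a 0 to 100 percent visual scale of growth reduction against solvent-treated controls, read 14 d after spraying. Applications went onto plants at first or second true leaf stage, 187 L/ha, with crop oil concentrate and X-77 surfactant in the carrier. Post-treatment watering was by subirrigation to avoid wash-off.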

[1] = ALOMY: blackgrass (Alopecurus myosuroides), read-out: Visual Growth Reduction (%) 14 Days After Application, ALOMY
[2] = AMARE: redroot pigweed (Amaranthus retroflexus), read-out: Visual Growth Reduction (%) 14 Days After Application, AMARE
[3] = AVEFA: wild oat (Avena fatua), read-out: Visual Growth Reduction (%) 14 Days After Application, AVEFA
[4] = CHEAL: lambsquarters (Chenopodium album), read-out: Visual Growth Reduction (%) 14 Days After Application, CHEAL
[5] = CIRAR: canada thistle (Cirsium arvense), read-out: Visual Growth Reduction (%) 14 Days After Application, CIRAR
[6] = CYPES: yellow nutsedge (Cyperus esculentus), read-out: Visual Growth Reduction (%) 14 Days After Application, CYPES
[7] = DIGSA: crabgrass (Digitaria sanguinalis), read-out: Visual Growth Reduction (%) 14 Days After Application, DIGSA
[8] = ECHCG: barnyardgrass (Echinochloa crus-galli), read-out: Visual Growth Reduction (%) 14 Days After Application, ECHCG
[9] = IPOHE: ivy-leaf morning glory (Ipomoea hederacea), read-out: Visual Growth Reduction (%) 14 Days After Application, IPOHE
[10] = KCHSC: kochia (Bassia scoparia), read-out: Visual Growth Reduction (%) 14 Days After Application, KCHSC
[11] = ORYSA: rice (Oryza sativa), read-out: Visual Growth Reduction (%) 14 Days After Application, ORYSA
[12] = SETFA: giant foxtail (Setaria faberi), read-out: Visual Growth Reduction (%) 14 Days After Application, SETFA
[13] = SORVU: grain sorghum (Sorghum vulgare), read-out: Visual Growth Reduction (%) 14 Days After Application, SORVU
[14] = STEME: common chickweed (Stellaria media), read-out: Visual Growth Reduction (%) 14 Days After Application, STEME
[15] = TRZAS: wheat, spring (Triticum aestivum), read-out: Visual Growth Reduction (%) 14 Days After Application, TRZAS

| Compound | pest or weed control at 140 g/ha [1] [%] | pest or weed control at 140 g/ha [2] [%] | pest or weed control at 140 g/ha [3] [%] | pest or weed control at 140 g/ha [4] [%] | pest or weed control at 140 g/ha [5] [%] | pest or weed control at 140 g/ha [6] [%] | pest or weed control at 140 g/ha [7] [%] | pest or weed control at 140 g/ha [8] [%] | pest or weed control at 140 g/ha [9] [%] | pest or weed control at 140 g/ha [10] [%] | pest or weed control at 140 g/ha [11] [%] | pest or weed control at 140 g/ha [12] [%] | pest or weed control at 140 g/ha [13] [%] | pest or weed control at 140 g/ha [14] [%] | pest or weed control at 140 g/ha [15] [%] |
| --- | --- | --- | --- | --- | --- | --- | --- | --- | --- | --- | --- | --- | --- | --- | --- |
| O=C(O)c1nc(-c2cc3c(cc2Cl)OC(F)(F)O3)c(F)cc1Cl [F175, 3-Chloro-6-(6-chloro-2,2-difluorobenzo[d] [1,3]dioxol-5-yl)-5-fluoropicolinic acid] | 60 to 74 | 95 to 100 | 60 to 74 | 95 to 100 | 85 to 94 | 0 to 29 | 95 to 100 | 85 to 94 | 95 to 100 | 85 to 94 | 45 to 59 | 85 to 94 | 95 to 100 | 0 to 29 | 85 to 94 |
| COC(=O)c1nc(-c2ccc(C(F)(F)C(N)=O)cc2Cl)ccc1Cl [F176, Methyl 6-(4-(2-amino-1,1-difluoro-2-oxoethyl)-2-chlorophenyl)-3-chloropicolinate] | 0 to 29 | 0 to 29 | 0 to 29 | 0 to 29 | 0 to 29 | 0 to 29 | 0 to 29 | 0 to 29 | 0 to 29 | 0 to 29 | 0 to 29 | 0 to 29 | 0 to 29 | 0 to 29 | 0 to 29 |
| COCC(F)(F)c1ccc(-c2ccc(Cl)c(C(=O)OC)n2)c(Cl)c1 [F177, methyl 3-chloro-6-(2-chloro-4-(1,1-difluoro-2-methoxyethyl)phenyl)picolinate] | 0 to 29 | 0 to 29 | 0 to 29 | 60 to 74 | 45 to 59 | 0 to 29 | 0 to 29 | 0 to 29 | 60 to 74 | 45 to 59 | 0 to 29 | 0 to 29 | 30 to 44 | 0 to 29 | 0 to 29 |
| COC(=O)c1nc(-c2ccc(C(F)(F)C#N)cc2Cl)ccc1Cl [F178, Methyl 3-chloro-6-(2-chloro-4-(cyanodifluoromethyl)phenyl)picolinate] | 0 to 29 | 0 to 29 | 0 to 29 | 0 to 29 | 0 to 29 | 0 to 29 | 0 to 29 | 0 to 29 | 0 to 29 | 0 to 29 | 0 to 29 | 0 to 29 | 0 to 29 | 0 to 29 | 0 to 29 |
| COCC(F)(F)c1ccc(-c2ccc(Cl)c(C(=O)O)n2)c(Cl)c1 [F179, 3-chloro-6-(2-chloro-4-(1,1-difluoro-2-methoxyethyl)phenyl)picolinic acid] | 0 to 29 | 60 to 74 | 0 to 29 | 0 to 29 | 0 to 29 | 0 to 29 | 0 to 29 | 0 to 29 | 95 to 100 | 60 to 74 | 0 to 29 | 0 to 29 | 0 to 29 | 0 to 29 | 0 to 29 |
| O=C(O)c1nc(-c2ccc(C(F)(F)C(=O)O)cc2Cl)ccc1Cl [F180, 6-(4-(Carboxy-difluoromethyl)-2-chlorophenyl)-3-chloropicolinic acid] | 0 to 29 | 0 to 29 | 0 to 29 | 0 to 29 | 0 to 29 | 0 to 29 | 0 to 29 | 0 to 29 | 0 to 29 | 0 to 29 | 0 to 29 | 0 to 29 | 0 to 29 | 0 to 29 | 0 to 29 |
| O=C(O)c1nc(-c2cc(Br)c(C(F)(F)F)cc2Cl)c(F)cc1Cl [F181, 6-(5-Bromo-2-chloro-4-(trifluoromethyl)phenyl)-3-chloro-5-fluoropicolinic acid] | 30 to 44 | 95 to 100 | 30 to 44 | 95 to 100 | 75 to 84 | 45 to 59 | 95 to 100 | 60 to 74 | 95 to 100 | 60 to 74 | 0 to 29 | 30 to 44 | 95 to 100 | 0 to 29 | 45 to 59 |
| O=C(O)c1nc(-c2cc3c(cc2Cl)OC(F)(F)O3)c(Cl)cc1Cl [F182, 3,5-Dichloro-6-(6-chloro-2,2-difluorobenzo[d][1,3]dioxol-5-yl)picolinic acid] | 0 to 29 | 75 to 84 | 0 to 29 | 85 to 94 | 0 to 29 | 30 to 44 | 60 to 74 | 0 to 29 | 95 to 100 | 45 to 59 | 0 to 29 | 60 to 74 | 85 to 94 | 0 to 29 | 0 to 29 |
| O=C(O)c1nc(-c2cc3c(cc2Cl)OCO3)c(Cl)cc1Cl [F183, 3,5-Dichloro-6-(6-chlorobenzo[d][1,3]dioxol-5-yl)picolinic acid] | 0 to 29 | 60 to 74 | 0 to 29 | 0 to 29 | 30 to 44 | 0 to 29 | 0 to 29 | 0 to 29 | 75 to 84 | 0 to 29 | 0 to 29 | 0 to 29 | 0 to 29 | 0 to 29 | 0 to 29 |
| COC(=O)c1nc(-c2ncc(Cl)c(C(F)F)c2Cl)ccc1Cl [F184] | 0 to 29 | 60 to 74 | 0 to 29 | 60 to 74 | 45 to 59 | 0 to 29 | 60 to 74 | 85 to 94 | 95 to 100 | 0 to 29 | 30 to 44 | 85 to 94 | 95 to 100 | 0 to 29 | 30 to 44 |
| COC(=O)c1nc(-c2ccc(OC(F)(F)F)cc2)c(F)cc1Cl [F185, Methyl 3-chloro-5-fluoro-6-(4-(trifluoromethoxy)phenyl)picolinate] | 0 to 29 | 0 to 29 | 0 to 29 | 45 to 59 | 0 to 29 | 0 to 29 | 75 to 84 | 0 to 29 | 75 to 84 | 0 to 29 | 0 to 29 | 30 to 44 | 60 to 74 | 0 to 29 | 0 to 29 |
